Measured values reported in ChEMBL document CHEMBL5465560, “Selectivity Literature for EUbOPEN Chemogenomic Library” (2024).

What was measured:
[1] = target: Protein kinase C delta type (Homo sapiens) (UniProt Q05655); details: at 10 µM
[2] = target: Ribosomal protein S6 kinase alpha-3 (Homo sapiens, UniProt P51812); test: Selectivity interaction (KinomeScan (DiscoverX)) EUB0000229b RPS6KA3; details: at 10 µM
[3] = target: Myosin-IIIa (Homo sapiens) (UniProt Q8NEV4); test: Selectivity interaction (KinomeScan (DiscoverX)) EUB0000092b MYO3A; details: at 10 µM
[4] = target: T1, Serine/threonine-protein kinase TAO1 (Homo sapiens) (UniProt Q7L7X3); test: Selectivity interaction (KinomeScan (DiscoverX)) EUB0000666a TAOK1; details: at 10 µM
T1 sequence (whole entry): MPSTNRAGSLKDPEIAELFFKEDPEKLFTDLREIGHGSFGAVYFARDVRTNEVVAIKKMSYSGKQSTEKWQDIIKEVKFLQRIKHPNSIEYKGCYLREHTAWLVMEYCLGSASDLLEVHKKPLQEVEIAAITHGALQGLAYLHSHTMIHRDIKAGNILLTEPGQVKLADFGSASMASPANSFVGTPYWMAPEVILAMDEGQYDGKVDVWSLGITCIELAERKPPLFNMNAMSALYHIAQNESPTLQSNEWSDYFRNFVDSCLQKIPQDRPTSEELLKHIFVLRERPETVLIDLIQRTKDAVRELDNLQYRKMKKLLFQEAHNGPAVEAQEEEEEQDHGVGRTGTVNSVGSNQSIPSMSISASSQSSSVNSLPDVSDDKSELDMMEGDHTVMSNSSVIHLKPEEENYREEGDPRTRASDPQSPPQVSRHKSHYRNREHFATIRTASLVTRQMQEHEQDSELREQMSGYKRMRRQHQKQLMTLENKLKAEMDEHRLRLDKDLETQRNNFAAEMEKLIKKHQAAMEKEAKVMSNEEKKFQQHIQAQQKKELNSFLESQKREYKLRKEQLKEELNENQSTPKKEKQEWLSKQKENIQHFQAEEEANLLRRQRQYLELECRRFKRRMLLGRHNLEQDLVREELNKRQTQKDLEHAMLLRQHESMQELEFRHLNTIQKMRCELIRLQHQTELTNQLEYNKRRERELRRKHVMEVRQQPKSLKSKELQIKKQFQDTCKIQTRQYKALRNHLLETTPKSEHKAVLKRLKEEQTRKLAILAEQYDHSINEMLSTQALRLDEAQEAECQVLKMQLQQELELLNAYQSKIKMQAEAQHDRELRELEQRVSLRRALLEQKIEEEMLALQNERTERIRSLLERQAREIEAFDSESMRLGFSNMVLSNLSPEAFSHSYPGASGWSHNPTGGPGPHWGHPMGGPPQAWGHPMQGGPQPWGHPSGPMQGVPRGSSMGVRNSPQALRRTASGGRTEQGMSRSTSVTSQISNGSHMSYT

[5] = target: T2, G protein-coupled receptor kinase 3 (Homo sapiens) (UniProt P35626); test: Selectivity interaction (Kinase panel (Z-LYTE Assay)) EUB0001632a ADRBK2; details: at 10 µM
T2 sequence (whole entry): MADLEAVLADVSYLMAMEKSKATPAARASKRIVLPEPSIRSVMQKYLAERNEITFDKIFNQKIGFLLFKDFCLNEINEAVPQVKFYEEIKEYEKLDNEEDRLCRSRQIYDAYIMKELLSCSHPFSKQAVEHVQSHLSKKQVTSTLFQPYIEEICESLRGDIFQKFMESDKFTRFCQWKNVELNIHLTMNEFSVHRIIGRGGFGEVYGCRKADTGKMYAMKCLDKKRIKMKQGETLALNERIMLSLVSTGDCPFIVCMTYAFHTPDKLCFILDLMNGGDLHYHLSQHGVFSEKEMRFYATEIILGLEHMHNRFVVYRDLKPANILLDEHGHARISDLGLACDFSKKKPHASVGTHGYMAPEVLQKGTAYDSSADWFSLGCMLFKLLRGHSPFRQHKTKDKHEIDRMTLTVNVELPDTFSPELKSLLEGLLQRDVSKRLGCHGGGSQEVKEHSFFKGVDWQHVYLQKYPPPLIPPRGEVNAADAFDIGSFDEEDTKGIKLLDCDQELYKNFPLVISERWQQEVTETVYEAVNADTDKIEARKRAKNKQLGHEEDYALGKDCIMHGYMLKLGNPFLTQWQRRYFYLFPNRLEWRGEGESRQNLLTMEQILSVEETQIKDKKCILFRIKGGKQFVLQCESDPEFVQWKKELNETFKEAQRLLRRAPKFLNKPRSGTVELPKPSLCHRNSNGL

[6] = target: Dual specificity mitogen-activated protein kinase kinase 1 (Homo sapiens, UniProt Q02750); test: Selectivity interaction (Rxn Biology Kinase assay) EUB0001632a MAP2K1; details: at 10 µM
[7] = target: Serine/threonine-protein kinase 24 (Homo sapiens) (UniProt Q9Y6E0); test: Selectivity interaction (ActivX KiNativ screen (kinase selectivity in THP-1 cell lysates)) EUB0000639a STK24; format: subcellular; details: lysate, at 1 µM
[8] = target: Fibroblast growth factor receptor 3 (Homo sapiens, UniProt P22607); test: Selectivity interaction (Kinase panel (Invitrogen)) EUB0000639a FGFR3; details: at 200 nM
[9] = target: T3, Mitogen-activated protein kinase kinase kinase 7 (Homo sapiens) (UniProt O43318); test: Selectivity interaction (KinomeScan (DiscoverX)) EUB0000607a MAP3K7; details: at 10 µM
T3 sequence (whole entry): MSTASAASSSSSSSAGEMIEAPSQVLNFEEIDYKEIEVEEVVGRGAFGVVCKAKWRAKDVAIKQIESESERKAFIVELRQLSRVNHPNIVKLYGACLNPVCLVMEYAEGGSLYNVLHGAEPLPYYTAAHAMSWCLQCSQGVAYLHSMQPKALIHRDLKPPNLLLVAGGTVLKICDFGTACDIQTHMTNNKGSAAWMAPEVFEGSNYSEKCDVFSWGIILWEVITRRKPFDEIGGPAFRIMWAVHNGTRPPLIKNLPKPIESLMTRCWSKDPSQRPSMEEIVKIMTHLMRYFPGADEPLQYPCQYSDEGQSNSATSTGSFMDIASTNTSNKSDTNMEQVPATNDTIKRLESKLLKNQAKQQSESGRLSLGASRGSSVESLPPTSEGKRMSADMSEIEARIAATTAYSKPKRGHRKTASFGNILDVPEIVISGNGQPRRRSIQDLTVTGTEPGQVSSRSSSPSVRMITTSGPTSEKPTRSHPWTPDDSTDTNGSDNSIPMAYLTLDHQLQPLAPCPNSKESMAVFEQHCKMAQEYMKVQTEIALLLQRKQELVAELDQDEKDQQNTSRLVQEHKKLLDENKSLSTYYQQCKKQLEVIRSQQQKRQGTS

[10] = target: High affinity choline transporter 1 (Homo sapiens) (UniProt Q9GZV3); test: Selectivity interaction (Eurofins CEREP Diversity Profile (receptors and ion channels)) EUB0000279b SLC5A7; details: at 10 µM
[11] = target: Serine/threonine-protein kinase 33 (Homo sapiens) (UniProt Q9BYT3); test: Selectivity interaction (Ambit KINOMEscan and KiNATiv profiling in Jurkat cells) EUB0000090b STK33; format: cell-based; details: at 1 µM
Sequence of Serine/threonine-protein kinase 33 (Homo sapiens) (Q9BYT3 whole entry, looked up): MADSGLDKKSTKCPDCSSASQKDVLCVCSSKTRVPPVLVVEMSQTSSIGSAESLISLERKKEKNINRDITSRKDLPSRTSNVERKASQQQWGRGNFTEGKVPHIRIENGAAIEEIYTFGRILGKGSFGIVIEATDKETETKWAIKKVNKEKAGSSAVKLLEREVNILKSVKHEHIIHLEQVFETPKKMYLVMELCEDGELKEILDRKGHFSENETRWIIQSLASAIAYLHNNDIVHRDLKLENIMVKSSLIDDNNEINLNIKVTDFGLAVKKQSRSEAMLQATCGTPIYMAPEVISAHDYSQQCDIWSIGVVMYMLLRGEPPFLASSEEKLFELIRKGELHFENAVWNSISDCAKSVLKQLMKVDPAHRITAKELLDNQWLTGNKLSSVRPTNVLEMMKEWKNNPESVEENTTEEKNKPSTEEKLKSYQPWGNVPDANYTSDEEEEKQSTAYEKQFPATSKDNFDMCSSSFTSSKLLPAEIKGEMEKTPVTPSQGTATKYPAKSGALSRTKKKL

Sequence of Ribosomal protein S6 kinase alpha-3 (P51812 whole entry): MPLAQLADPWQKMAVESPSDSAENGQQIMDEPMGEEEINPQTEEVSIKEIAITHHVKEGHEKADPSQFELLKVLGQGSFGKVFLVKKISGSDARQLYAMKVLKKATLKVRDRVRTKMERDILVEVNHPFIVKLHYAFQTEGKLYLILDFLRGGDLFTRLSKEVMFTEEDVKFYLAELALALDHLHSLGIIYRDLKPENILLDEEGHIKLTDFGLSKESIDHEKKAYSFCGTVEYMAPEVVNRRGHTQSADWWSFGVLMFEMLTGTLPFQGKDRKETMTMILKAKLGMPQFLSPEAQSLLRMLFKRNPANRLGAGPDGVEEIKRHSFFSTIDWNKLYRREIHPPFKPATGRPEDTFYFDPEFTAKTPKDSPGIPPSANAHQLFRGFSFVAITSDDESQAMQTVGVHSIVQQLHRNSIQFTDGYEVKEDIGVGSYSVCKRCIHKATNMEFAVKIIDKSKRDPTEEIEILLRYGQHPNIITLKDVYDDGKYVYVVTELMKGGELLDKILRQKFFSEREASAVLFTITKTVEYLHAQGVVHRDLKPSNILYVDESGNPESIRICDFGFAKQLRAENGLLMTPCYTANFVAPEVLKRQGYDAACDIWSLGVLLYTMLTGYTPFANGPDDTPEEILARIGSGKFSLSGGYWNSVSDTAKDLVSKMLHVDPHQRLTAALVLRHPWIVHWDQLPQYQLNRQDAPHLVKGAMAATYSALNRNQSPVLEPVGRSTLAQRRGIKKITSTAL
Sequence of High affinity choline transporter 1 (Homo sapiens) (Q9GZV3 whole entry): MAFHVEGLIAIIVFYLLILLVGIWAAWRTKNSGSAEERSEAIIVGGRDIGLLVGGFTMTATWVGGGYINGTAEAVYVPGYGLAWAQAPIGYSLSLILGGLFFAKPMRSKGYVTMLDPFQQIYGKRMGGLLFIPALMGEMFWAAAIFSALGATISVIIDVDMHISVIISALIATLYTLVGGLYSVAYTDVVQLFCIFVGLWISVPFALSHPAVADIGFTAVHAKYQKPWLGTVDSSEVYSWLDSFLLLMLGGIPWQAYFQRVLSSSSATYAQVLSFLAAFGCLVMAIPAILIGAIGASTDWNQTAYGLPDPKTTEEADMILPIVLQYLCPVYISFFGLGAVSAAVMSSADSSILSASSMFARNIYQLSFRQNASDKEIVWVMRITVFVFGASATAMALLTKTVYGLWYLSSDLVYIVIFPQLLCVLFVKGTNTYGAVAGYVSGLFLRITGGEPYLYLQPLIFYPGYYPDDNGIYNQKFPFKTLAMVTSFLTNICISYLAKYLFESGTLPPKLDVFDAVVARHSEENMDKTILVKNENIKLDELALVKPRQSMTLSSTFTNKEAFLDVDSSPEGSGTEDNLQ
Sequence of Dual specificity mitogen-activated protein kinase kinase 1 (Q02750 whole entry): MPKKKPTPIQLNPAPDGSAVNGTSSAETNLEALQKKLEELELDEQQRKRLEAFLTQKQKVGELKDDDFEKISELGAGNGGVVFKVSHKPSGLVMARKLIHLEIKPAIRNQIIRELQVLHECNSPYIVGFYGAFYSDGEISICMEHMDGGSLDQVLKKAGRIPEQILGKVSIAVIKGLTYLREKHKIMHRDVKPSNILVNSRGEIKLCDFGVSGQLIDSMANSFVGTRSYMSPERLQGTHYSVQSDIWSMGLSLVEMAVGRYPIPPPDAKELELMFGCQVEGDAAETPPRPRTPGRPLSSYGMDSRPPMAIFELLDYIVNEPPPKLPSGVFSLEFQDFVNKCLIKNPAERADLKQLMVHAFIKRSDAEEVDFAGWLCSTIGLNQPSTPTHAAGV
Sequence of Serine/threonine-protein kinase 24 (Homo sapiens) (Q9Y6E0 whole entry, looked up): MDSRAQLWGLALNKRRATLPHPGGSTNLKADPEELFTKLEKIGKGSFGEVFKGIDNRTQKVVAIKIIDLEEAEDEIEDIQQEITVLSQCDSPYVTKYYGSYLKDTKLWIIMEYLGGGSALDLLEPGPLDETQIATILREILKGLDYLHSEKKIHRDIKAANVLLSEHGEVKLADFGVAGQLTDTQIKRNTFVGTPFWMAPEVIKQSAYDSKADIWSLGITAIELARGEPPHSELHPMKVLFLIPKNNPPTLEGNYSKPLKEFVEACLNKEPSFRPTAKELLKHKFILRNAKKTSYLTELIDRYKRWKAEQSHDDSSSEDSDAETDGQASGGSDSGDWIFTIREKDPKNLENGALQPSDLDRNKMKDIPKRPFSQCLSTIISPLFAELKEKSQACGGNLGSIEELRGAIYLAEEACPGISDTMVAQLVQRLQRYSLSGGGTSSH
Sequence of Myosin-IIIa (Homo sapiens) (Q8NEV4 whole entry): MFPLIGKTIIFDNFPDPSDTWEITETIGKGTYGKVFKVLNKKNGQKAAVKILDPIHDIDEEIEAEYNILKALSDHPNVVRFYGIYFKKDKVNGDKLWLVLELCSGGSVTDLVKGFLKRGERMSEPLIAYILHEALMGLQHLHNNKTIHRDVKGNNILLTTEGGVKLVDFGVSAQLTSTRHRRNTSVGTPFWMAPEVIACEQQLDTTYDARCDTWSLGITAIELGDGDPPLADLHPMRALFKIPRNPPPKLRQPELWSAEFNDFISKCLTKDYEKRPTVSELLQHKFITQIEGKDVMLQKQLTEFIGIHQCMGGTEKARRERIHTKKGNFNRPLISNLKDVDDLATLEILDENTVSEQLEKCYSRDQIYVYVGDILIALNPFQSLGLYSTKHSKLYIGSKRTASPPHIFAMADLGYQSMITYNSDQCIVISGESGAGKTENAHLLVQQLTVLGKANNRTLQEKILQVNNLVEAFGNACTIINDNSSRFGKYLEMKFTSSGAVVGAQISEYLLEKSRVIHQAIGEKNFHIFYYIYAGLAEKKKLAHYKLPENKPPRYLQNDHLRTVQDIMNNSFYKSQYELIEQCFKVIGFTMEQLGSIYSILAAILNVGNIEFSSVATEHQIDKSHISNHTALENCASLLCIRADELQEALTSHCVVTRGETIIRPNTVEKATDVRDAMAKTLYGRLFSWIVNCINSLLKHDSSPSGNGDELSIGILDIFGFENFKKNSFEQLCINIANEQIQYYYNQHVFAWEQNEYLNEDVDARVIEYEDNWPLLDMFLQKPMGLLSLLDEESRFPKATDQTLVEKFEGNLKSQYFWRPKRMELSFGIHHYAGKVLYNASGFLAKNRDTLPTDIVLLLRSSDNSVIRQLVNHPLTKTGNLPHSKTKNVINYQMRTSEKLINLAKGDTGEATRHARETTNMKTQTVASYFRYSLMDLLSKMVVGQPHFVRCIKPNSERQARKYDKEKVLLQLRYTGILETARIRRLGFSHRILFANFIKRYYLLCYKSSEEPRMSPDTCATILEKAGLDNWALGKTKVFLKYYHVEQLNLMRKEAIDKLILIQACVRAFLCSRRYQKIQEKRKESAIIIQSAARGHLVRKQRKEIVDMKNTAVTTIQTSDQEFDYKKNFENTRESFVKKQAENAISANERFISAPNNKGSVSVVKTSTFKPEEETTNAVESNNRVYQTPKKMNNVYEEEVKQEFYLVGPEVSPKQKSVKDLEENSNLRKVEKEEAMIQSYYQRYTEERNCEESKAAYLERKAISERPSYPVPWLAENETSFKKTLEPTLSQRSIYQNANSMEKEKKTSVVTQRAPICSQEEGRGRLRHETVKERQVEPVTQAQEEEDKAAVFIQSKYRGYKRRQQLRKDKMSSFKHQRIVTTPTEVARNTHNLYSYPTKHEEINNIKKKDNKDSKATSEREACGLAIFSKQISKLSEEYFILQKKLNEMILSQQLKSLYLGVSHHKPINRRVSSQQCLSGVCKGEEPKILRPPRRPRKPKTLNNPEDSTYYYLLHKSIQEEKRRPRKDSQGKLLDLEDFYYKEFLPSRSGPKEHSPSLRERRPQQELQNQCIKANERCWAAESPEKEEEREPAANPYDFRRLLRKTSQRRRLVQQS
Sequence of Fibroblast growth factor receptor 3 (P22607 23-806 limits assumed): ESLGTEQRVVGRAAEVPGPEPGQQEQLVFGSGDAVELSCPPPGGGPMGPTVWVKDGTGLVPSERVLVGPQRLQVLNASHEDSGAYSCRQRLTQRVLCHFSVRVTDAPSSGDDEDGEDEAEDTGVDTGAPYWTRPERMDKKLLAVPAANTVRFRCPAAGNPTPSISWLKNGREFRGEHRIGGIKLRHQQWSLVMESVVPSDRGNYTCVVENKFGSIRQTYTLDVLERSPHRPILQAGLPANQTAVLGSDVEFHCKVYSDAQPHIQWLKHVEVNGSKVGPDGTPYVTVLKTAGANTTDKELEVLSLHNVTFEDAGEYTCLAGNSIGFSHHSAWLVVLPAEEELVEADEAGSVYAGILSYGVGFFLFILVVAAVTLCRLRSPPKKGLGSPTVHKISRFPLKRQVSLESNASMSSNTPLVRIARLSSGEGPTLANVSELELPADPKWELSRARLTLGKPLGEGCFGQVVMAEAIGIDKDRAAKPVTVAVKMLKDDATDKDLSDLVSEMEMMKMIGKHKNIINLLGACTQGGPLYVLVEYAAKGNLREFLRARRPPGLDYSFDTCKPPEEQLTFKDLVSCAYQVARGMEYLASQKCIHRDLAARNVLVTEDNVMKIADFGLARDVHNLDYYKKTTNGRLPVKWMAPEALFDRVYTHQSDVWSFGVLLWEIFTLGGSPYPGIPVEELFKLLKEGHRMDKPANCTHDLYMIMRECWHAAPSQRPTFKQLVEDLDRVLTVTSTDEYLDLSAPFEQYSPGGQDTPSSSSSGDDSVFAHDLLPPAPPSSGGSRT

`CCN(CC)CCCCNc1ncc2cc(-c3cc(OC)cc(OC)c3)c(NC(=O)NC(C)(C)C)nc2n1` gave a % of control [1] of 100%.

Work on `COc1cc(N(C)c2ccnc3ccc(C(F)(F)F)cc23)cc(OC)c1OC` yielded a % binding [2] of 95%.

`CCC(=O)N1CCN(c2ccc(-n3c(=O)ccc4cnc5ccc(-c6cnc7ccccc7c6)cc5c43)cc2C(F)(F)F)CC1` showed a % of control [3] of 100%.

Molecule `O=C(NOC[C@H](O)CO)c1ccc(F)c(F)c1Nc1ccc(I)cc1F` has a % of control [4] of 100%.

With `Cn1cc(-n2cnc3c(NCc4nc5cc(Cl)c(Cl)cc5[nH]4)nc(N4CCOCC4)nc32)cn1` the % of control [5] was -1.17% and the % of inhibition [6] was 4.54%.

For `CC[C@@H]1[C@H](F)C(=O)N[C@@H]1COc1nccc2cc(C(N)=O)c(OC)cc12` [ZIMLOVISERTIB], the % of inhibition [7] was 5.9% and the % of inhibition [8] was -0.438%.

`CNC(=O)Nc1ccc(-c2nc(N3CC4CCC(C3)O4)c3cnn(C4CCC5(CC4)OCCO5)c3n2)cc1` showed a % of control [9] of 98%.

For `CC(=O)c1cc(-c2ccccc2OCC2CC2)c2ncccn12`, the % of control [10] was 90%.

`CN(C)C/C=C/C(=O)Nc1ccc(C(=O)N2CCCC(Nc3ncc(Cl)c(-c4c[nH]c5ccccc45)n3)C2)cc1` (stereo unspecified) gave a % of control [11] of 90%.
